{"source": "paper PMC2720952", "about": "(BMC Evolutionary Biology, 2009)", "key": {"[1]": {"target": "C. pneumoniae AaxC (Chlamydia pneumoniae, UniProt Q9Z6M8)", "sequence (Q9Z6M8 whole entry)": "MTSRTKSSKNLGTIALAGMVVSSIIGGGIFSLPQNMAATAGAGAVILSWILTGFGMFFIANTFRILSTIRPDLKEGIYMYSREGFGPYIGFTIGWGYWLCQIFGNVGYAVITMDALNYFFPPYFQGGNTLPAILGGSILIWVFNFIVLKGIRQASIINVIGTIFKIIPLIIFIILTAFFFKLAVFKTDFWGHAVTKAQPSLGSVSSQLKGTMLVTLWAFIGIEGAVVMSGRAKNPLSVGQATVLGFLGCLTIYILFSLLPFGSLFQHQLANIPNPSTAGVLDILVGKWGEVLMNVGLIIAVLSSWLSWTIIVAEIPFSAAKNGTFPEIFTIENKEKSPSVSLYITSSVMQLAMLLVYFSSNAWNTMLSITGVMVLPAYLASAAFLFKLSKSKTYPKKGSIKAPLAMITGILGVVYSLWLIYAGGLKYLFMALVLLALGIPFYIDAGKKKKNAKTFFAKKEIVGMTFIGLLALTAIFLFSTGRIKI", "conditions": "1 mM L-arginine, E medium pH 5, 37 °C, 20 min; AaxB co-expressed; labelled compound"}, "[2]": {"target": "AaxC (CT374) from C. trachomatis D/UW-3 (Chlamydia trachomatis, UniProt O84379)", "sequence (O84379 whole entry)": "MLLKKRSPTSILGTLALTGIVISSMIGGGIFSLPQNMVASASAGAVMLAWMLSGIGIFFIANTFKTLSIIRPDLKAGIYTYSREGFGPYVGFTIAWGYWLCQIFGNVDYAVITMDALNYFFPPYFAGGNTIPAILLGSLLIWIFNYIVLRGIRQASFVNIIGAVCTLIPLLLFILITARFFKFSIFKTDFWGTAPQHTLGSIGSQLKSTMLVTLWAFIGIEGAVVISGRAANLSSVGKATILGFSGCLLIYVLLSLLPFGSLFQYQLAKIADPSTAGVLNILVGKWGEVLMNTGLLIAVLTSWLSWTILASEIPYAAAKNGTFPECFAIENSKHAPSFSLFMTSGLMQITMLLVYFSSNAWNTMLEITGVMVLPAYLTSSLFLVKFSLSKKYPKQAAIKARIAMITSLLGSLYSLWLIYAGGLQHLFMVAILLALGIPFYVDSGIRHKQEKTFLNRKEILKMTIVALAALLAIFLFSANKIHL", "conditions": "1 mM L-arginine, E medium pH 5, 37 °C, 20 min; AaxB co-expressed; labelled compound"}}}
{"smiles": "N=C(N)NCCC[C@H](N)C(=O)O", "note": "[L-arginine]", "values": [{"measurement": "uptake of L-[2,3,4,5-3H]arginine by E. coli DEG0147 cells, filtration", "setting": "[1]", "value": "A significant difference in samples expressing C. pneumoniae aaxBC (relative to pBAD/HisA)"}, {"measurement": "uptake of L-[2,3,4,5-3H]arginine by E. coli DEG0147 cells, filtration", "setting": "[2]", "value": "cells expressing D/UW-3 strain aaxBC genes showed significantly enhanced uptake"}]}
